According to patent US20190223437A1, “ACTIVE COMPOUND COMBINATIONS COMPRISING A 5-SUBSTITUTED IMIDAZOLE DERIVATIVE” (BAYER CROPSCIENCE AKTIENGESELLSCHAFT, priority 2016, published 2019):
Values joined by “and” are separate entries in the source; they are usually repeats but may differ in a detail not shown here. Equal entries are not always repeated. Where two headings read alike, the source gives them in different places.

Legend:
[1] = tested on: fish (Danio rerio) embryos; assay: Example G: in vivo ecotoxicity screening test on fish (Danio rerio); conditions: active compound alone, fish (D. rerio) embryos; for Ecotoxicity LC50-48 h found: mortality after 48 h; for Ecotoxicity LC50-96 h found: mortality after 96 h
Description: (§1) with ECxi the Effect Concentration (EC) of each chemical i (in ppm) causing x % effect on the ecotoxicity test endpoint.
(§2) For each compound combination, the predicted ECx value is calculated. It is then compared to an experimentally measured value. The ratio of predicted versus measured effect for the combination (thereafter called the Model Deviation Ratio or MDR) is then calculated.
(§3) The environmental effect of the compound combinations was measured experimentally in laboratory ecotoxicity screening studies with fish (Danio rerio). […] Mortality was recorded after 48 h and 96 h for each tested concentration and a reference control. […] Then, the MDR values were calculated.
(§4) This concentrate is then diluted with water to the desired a.i. concentration, leading to a maximal solvent concentration of 0.5%. by weight The compounds alone and the combinations were tested for five increasing concentrations comprised between 0.01 and 1000 ppm (mg/1) a.i., (e.g. 0.1, 1.0, 10 and 100 ppm a.i). For the combinations, compounds A and B were mixed in a weight ratio of 5:1 to 1:5 and five increasing concentrations were tested for each ratio.

Pyrenophora oryzae = assay: Example F: in vitro-Test with Pyrenophora oryzae; format: cell-based; conditions: compound alone
[2] = tested on: causal agent of soybean rust (Phakopsora pachyrhizi); assay: Example C: in vivo preventive test on Phakopsora test (soybeans); conditions: compound alone
[3] = Example G: in vivo ecotoxicity screening test on fish (Danio rerio); conditions: Danio rerio, in vivo, other: exposure of embryos in water containing the compound
Description: as §1, §2, §3, §4

Alternaria alternata = assay: Example F: in vitro-Test with Alternaria alternata; format: cell-based; conditions: compound alone, growth inhibition, photometric, 3-5 days after application
Sphaerotheca fuliginea = assay: Example D: in vivo preventive test on Sphaerotheca test (cucumbers); conditions: compound alone
[4] = tested on: causal agent of apple scab (Venturia inaequalis); assay: Example E: in vivo preventive test on Venturia test (apples); conditions: compound alone
Septoria tritici = assay: Example F: in vitro-Test with Septoria tritici; format: cell-based; conditions: compound alone
Colletotrichum coccodes = assay: Example B: in vivo preventive test on Colletotrichum test (tomatoes); conditions: compound alone
Description: (§5) The test is evaluated 3 days after the inoculation.

Pyricularia oryzae = format: cell-based; conditions: compound alone
Alternaria solani = assay: Example A: in vivo preventive test on Alternaria test (tomatoes); conditions: compound alone, evaluated 3 days after inoculation
Description: as §5

## Cc1nn(C)c(F)c1C(=O)Nc1ccccc1C(C)CC(C)C (centres unmarked) [Example 2.017, penflufen]
[1]
  Ecotoxicity LC50-48 h found: 1.74 ppm a.i.
  Ecotoxicity LC50-96 h found: 0.62 ppm a.i.

## COc1ccnc(C(=O)N[C@H]2COC(=O)[C@H](Cc3ccccc3)[C@@H](OC(=O)C(C)C)[C@H](C)OC2=O)c1OCOC(=O)C(C)C [Example 3.025, (3S,6S,7R,8R)-8-benzyl-3-[({3-[(isobutyryloxy)methoxy]-4-methoxypyridin-2-yl}carbonyl)amino]-6-methyl-4,9-dioxo-1,5-dioxonan-7-yl 2-methylpropanoate]
Pyrenophora oryzae; 4 ppm
  Efficacy %: 0%
Pyrenophora oryzae; 20 ppm
  Efficacy %: 0%
[2]; 5 ppm a.i.
  Efficacy in % found: 0%
[2]; 10 ppm a.i.
  Efficacy in % found: 30%
[2]; 20 ppm a.i.
  Efficacy in % found: 35%
[3]
  LC50 at 48 h: 2.31 µg/mL
  LC50 at 96 h: 1.87 µg/mL

## CCCN(CC)CC1COC2(CCC(C(C)(C)C)CC2)O1 (centres unmarked) [1.020 spiroxamine, spiroxamine, reference compound]
Alternaria alternata; 4 ppm
  Efficacy %: 13%
Alternaria alternata; 20 ppm
  Efficacy %: 5%
Alternaria alternata; 100 ppm
  Efficacy %: 66%
Sphaerotheca fuliginea; 25 ppm a.i.
  Efficacy in % found: 0%
Sphaerotheca fuliginea; 50 ppm a.i.
  Efficacy in % found: 30%
Sphaerotheca fuliginea; 100 ppm a.i.
  Efficacy in % found: 40%
[3]
  LC50 at 48 h: 16.5 µg/mL
  LC50 at 96 h: 14.8 µg/mL

## CC1CC(C)(C)c2cccc(NC(=O)c3cn(C)nc3C(F)F)c21 (centres unmarked) [Example 2.027, 3-(difluoromethyl)-1-methyl-N-(1,1,3-trimethyl-2,3-dihydro-1H-inden-4-yl)-1H-pyrazole-4-carboxamide, reference compound]
[4]; 1 ppm a.i.
  Efficacy in % found: 8%
[4]; 2 ppm a.i.
  Efficacy in % found: 8%
[4]; 4 ppm a.i.
  Efficacy in % found: 74%
Pyrenophora oryzae; 0.8 ppm
  Efficacy %: 55%
Pyrenophora oryzae; 4 ppm
  Efficacy %: 81%
[2]; 1 ppm a.i.
  Efficacy in % found: 15%
[2]; 2 ppm a.i.
  Efficacy in % found: 85%
[2]; 4 ppm a.i.
  Efficacy in % found: 96%
[3]
  LC50 at 48 h: 1.85 µg/mL
  LC50 at 96 h: 1.74 µg/mL

## COCC(=O)N(c1c(C)cccc1C)[C@H](C)C(=O)OC [12.004 mefenoxam]
Septoria tritici; 20 ppm
  Efficacy %: 28%
Septoria tritici; 100 ppm
  Efficacy %: 42%
Colletotrichum coccodes; 50 ppm a.i.
  Efficacy in % found: 0%
Colletotrichum coccodes; 100 ppm a.i.
  Efficacy in % found: 8%
Colletotrichum coccodes; 200 ppm a.i.
  Efficacy in % found: 15%
[2]; 50 ppm a.i.
  Efficacy in % found: 0%
[2]; 100 ppm a.i.
  Efficacy in % found: 8%
[2]; 200 ppm a.i.
  Efficacy in % found: 0%
Pyricularia oryzae; 20 ppm
  Efficacy %: 0%
Pyricularia oryzae; 100 ppm
  Efficacy %: 0%

## mancozeb [5.013 mancozeb]
Alternaria alternata; 0.8 ppm
  Efficacy %: 51%
Alternaria alternata; 4 ppm
  Efficacy %: 78%
Alternaria solani; 12.5 ppm a.i.
  Efficacy in % found: 8%
Alternaria solani; 25 ppm a.i.
  Efficacy in % found: 10%
Alternaria solani; 50 ppm a.i.
  Efficacy in % found: 85%
[4]; 5 ppm a.i.
  Efficacy in % found: 15%
[4]; 10 ppm a.i.
  Efficacy in % found: 49%
[4]; 20 ppm a.i.
  Efficacy in % found: 95%
Colletotrichum coccodes; 12.5 ppm a.i.
  Efficacy in % found: 0%
Colletotrichum coccodes; 25 ppm a.i.
  Efficacy in % found: 0%
Colletotrichum coccodes; 50 ppm a.i.
  Efficacy in % found: 8%
[2]; 12.5 ppm a.i.
  Efficacy in % found: 0%
[2]; 25 ppm a.i.
  Efficacy in % found: 15%
[2]; 50 ppm a.i.
  Efficacy in % found: 80%

## N#Cc1cncn1CC(O)(Cc1ccccc1F)C1(Cl)CC1 (centres unmarked) [Example I-34, 1-[2-(1-chlorocyclopropyl)-3-(2-fluorophenyl)-2-hydroxypropyl]-1H-imidazole-5-carbonitrile]
Septoria tritici; 0.008 ppm
  Efficacy %: 0%
Septoria tritici; 0.04 ppm
  Efficacy %: 28%
Septoria tritici; 0.2 ppm
  Efficacy %: 59%
Septoria tritici; 1 ppm
  Efficacy %: 68%
Sphaerotheca fuliginea; 1 ppm a.i.
  Efficacy in % found: 0%
Sphaerotheca fuliginea; 5 ppm a.i.
  Efficacy in % found: 0%
Alternaria solani; 1 ppm a.i.
  Efficacy in % found: 15%
Alternaria solani; 5 ppm a.i.
  Efficacy in % found: 45%
[4]; 1 ppm a.i.
  Efficacy in % found: 8%
[4]; 5 ppm a.i.
  Efficacy in % found: 66% and 68%
Pyrenophora oryzae; 0.008 ppm
  Efficacy %: 0%
Pyrenophora oryzae; 0.2 ppm
  Efficacy %: 0%
Colletotrichum coccodes; 1 ppm a.i.
  Efficacy in % found: 8%
Colletotrichum coccodes; 5 ppm a.i.
  Efficacy in % found: 60%
[2]; 1 ppm a.i.
  Efficacy in % found: 8% and 0%
[2]; 5 ppm a.i.
  Efficacy in % found: 93% and 88%
[3]
  LC50 at 48 h: 35.6 µg/mL
  LC50 at 96 h: 27.4 µg/mL

## N#Cc1cncn1CC(O)(Cc1cccc(Cl)c1F)C1(Cl)CC1 (centres unmarked) [Example I-145, 1-[3-(3-chloro-2-fluorophenyl)-2-(1-chlorocyclopropyl)-2-hydroxypropyl]-1H-imidazole-5-carbonitrile]
Alternaria alternata; 0.008 ppm
  Efficacy %: 0%
Alternaria alternata; 0.04 ppm
  Efficacy %: 0% and 2%
Alternaria alternata; 0.2 ppm
  Efficacy %: 32%
Alternaria alternata; 1 ppm
  Efficacy %: 1%
Septoria tritici; 0.008 ppm
  Efficacy %: 29%
Septoria tritici; 0.04 ppm
  Efficacy %: 25%
Septoria tritici; 0.2 ppm
  Efficacy %: 51%
Septoria tritici; 1 ppm
  Efficacy %: 63%
Sphaerotheca fuliginea; 1 ppm a.i.
  Efficacy in % found: 0%
Sphaerotheca fuliginea; 5 ppm a.i.
  Efficacy in % found: 0%
Alternaria solani; 1 ppm a.i.
  Efficacy in % found: 8%
Alternaria solani; 5 ppm a.i.
  Efficacy in % found: 40%
[4]; 1 ppm a.i.
  Efficacy in % found: 0%
[4]; 5 ppm a.i.
  Efficacy in % found: 66%
Pyrenophora oryzae; 0.008 ppm
  Efficacy %: 0%
Pyrenophora oryzae; 0.04 ppm
  Efficacy %: 0%
Colletotrichum coccodes; 1 ppm a.i.
  Efficacy in % found: 23%
Colletotrichum coccodes; 5 ppm a.i.
  Efficacy in % found: 75%
[2]; 1 ppm a.i.
  Efficacy in % found: 0%
[2]; 5 ppm a.i.
  Efficacy in % found: 45%
[3]
  LC50 at 48 h: 28.2 µg/mL
  LC50 at 96 h: 13.4 µg/mL
Pyricularia oryzae; 0.2 ppm
  Efficacy %: 84%
Pyricularia oryzae; 1 ppm
  Efficacy %: 87%

## metalaxyl [12.003 metalaxyl]
Septoria tritici; 20 ppm
  Efficacy %: 43%
Septoria tritici; 100 ppm
  Efficacy %: 31%
Alternaria solani; 50 ppm a.i.
  Efficacy in % found: 8%
Alternaria solani; 100 ppm a.i.
  Efficacy in % found: 8%
Alternaria solani; 200 ppm a.i.
  Efficacy in % found: 30%
Colletotrichum coccodes; 50 ppm a.i.
  Efficacy in % found: 0%
Colletotrichum coccodes; 100 ppm a.i.
  Efficacy in % found: 0%
Colletotrichum coccodes; 200 ppm a.i.
  Efficacy in % found: 8%
[2]; 50 ppm a.i.
  Efficacy in % found: 0%
[2]; 100 ppm a.i.
  Efficacy in % found: 0%
[2]; 200 ppm a.i.
  Efficacy in % found: 20%
[1]
  Ecotoxicity LC50-48 h found: >200 ppm a.i.
  Ecotoxicity LC50-96 h found: >200 ppm a.i.
Pyricularia oryzae; 20 ppm
  Efficacy %: 0%
Pyricularia oryzae; 100 ppm
  Efficacy %: 5%

## CON=C(C(=O)OC)c1ccccc1CON=C(C)c1cccc(C(F)(F)F)c1 [3.020 trifloxystrobin]
Pyrenophora oryzae; 0.04 ppm
  Efficacy %: 0%
Pyrenophora oryzae; 0.2 ppm
  Efficacy %: 0%
Pyrenophora oryzae; 1 ppm
  Efficacy %: 0%

## metalaxyl-M (mefenoxam) [Example 12.004]
[1]
  Ecotoxicity LC50-48 h found: >200 ppm a.i.
  Ecotoxicity LC50-96 h found: >200 ppm a.i.
